Assay results reported in patent publication US12486253B2, “Therapeutics for the degradation of mutant BRAF” (C4 THERAPEUTICS, INC., priority 2021, dated 2025).

System: A375 tumors
Assay: In vivo efficacy in A375 xenograft tumors
Set-up: species or system BALB/c nude mice
Conditions: mice
Experimental: The efficacy study was conducted in female BALB/c nude mice bearing A375 tumors. Female BALB/c nude mice were inoculated subcutaneously in the right flank with A375 tumor cells (5×10^6) in 0.2 mL of PBS supplemented with Matrigel (at a 1:1 ratio) for tumor development. Tumor volume was measured twice weekly in two dimensions using calipers, and volume (mm^3) was calculated using the formula: V=0.5 a×b^2 where a and b are the long and short diameters of the tumor in mm, respectively. Once the tumors reached an average tumor volume of 246 mm^3 (16 days after implantation), the animals were divided randomly into groups of 6, stratified to result in about equal average tumor sizes in each treatment group and treatment began on Day 0.
All agents were administered to mice bearing A375 tumors orally (PO), daily (QD; encorafenib), twice a day (BID) or three times a day (TID) for Compound 157, for 21 or 35 days. encorafenib was dosed at 35 mg/kg and Compound 157 at 0.1, 0.3, 1, 3 or 10 mg/kg twice a day or 2 mg/kg three times a day. Compound 157 was formulated in 20% PEG400+80% (25% SBECD). Body weight and MTV were measured on a 2× weekly schedule and reported as Mean±SEM.

CCN(C)S(=O)(=O)Nc1ccc(F)c(Oc2ccc3ncn([C@H]4COC5(CCN(C(=O)CC6(O)CCN(c7cc8c(cc7F)c(N7CCC(=O)NC7=O)nn8C)CC6)CC5)C4)c(=O)c3c2)c1C#N [Compound 157, (3R)-3-[6-[2-cyano-3-[[ethyl(methyl)sulfamoyl]amino]-6-fluorophenoxy]-4-oxoquinazolin-3-yl]-8-[2-[1-[3-(2,4-dioxo-1,3-diazinan-1-yl)-5-fluoro-1-methylindazol-6-yl]-4-hydroxypiperidin-4-yl]acetyl]-1-oxa-8-azaspiro[4.5]decane]
Tumor growth compared to vehicle-treated tumors (1 mg/kg PO BID): potent tumor growth inhibition
Tumor growth compared to vehicle-treated tumors (2 mg/kg PO TID): potent tumor growth inhibition
Tumor growth compared to vehicle-treated tumors (3 mg/kg PO BID): potent tumor growth inhibition
Tumor growth compared to vehicle-treated tumors (10 mg/kg PO BID): robust tumor growth regression
